Reference: patent publication US7803774B2, “Modulators of β-amyloid peptide aggregation” (Praecis Pharmaceuticals, Inc., priority 1999, dated 2010)
Where a name gives a salt, the structure may show the parent alone.

Experiments:
[1] = target: T1, Aβ1-40 (Homo sapiens, UniProt P05067); assay: Nucleation assay (turbidity, change in lag time of Aβ aggregation); format: biochemical; details: for Nucleation assay data 0.3 μM: 0.3 μM test compound; for Nucleation assay data 0.3 μM / Nucleation assay data 1 μM / Nucleation assay data 3 μM: ΔLag ratio to control; for Nucleation assay data 0.3 μM / Nucleation assay data 1 μM / Nucleation assay data 3 μM / Nucleation assay data: Table II; for Nucleation assay data 1 μM: 1 μM test compound; for Nucleation assay data 3 μM: 3 μM test compound; for Nucleation assay data 3 μM / Nucleation assay Δ lag 1.25 μM / Nucleation assay Δ lag 5 μM / Nucleation assay Δ lag […]: 5 μM Aβ1-40; for Nucleation assay data: footnote *: measured at 1.25 μM of compound; for Nucleation assay Δ lag 1.25 μM: 1.25 μM test compound; for Nucleation assay Δ lag 1.25 μM / Nucleation assay Δ lag […]: ratio to control lag time; for Nucleation assay Δ lag 5 μM: 5 μM test compound, ratio of lag time with compound to lag time of control; for Nucleation assay Δ lag […]: […] test compound
T1 construct: first Aβ1-40 peptide is dissolved in HFIP
T1 sequence (P05067 672-711): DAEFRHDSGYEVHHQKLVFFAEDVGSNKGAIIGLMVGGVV
Source text: The nucleation assay is employed to determine the ability of test compounds to alter (e.g. inhibit) the early events in formation of β-AP fibers from monomeric β-AP. Characteristic of a nucleated polymerization mechanism, a lag time is observed prior to nucleation, after which the peptide rapidly forms fibers as reflected in a linear rise in turbidity. The time delay before polymerization of β-AP monomer can be quantified as well as the extent of formation of insoluble fiber by light scattering (turbidity). Polymerization reaches equilibrium when the maximum turbidity reaches a plateau. The turbidity of a solution of natural β-AP in the absence or presence of various concentrations of a β-amyloid modulator compound is determined by measuring the apparent absorbance of the solution at 405 nm (A405nm) over time. The threshold of sensitivity for the measurement of turbidity is in the range of 15-20 μM β-AP. […] This assay can be performed using stirring or shaking to accelerate polymerization, thereby increasing the speed of the assay. Moreover the assay can be adapted to a 96-well plate format to screen multiple compounds.
To perform the nucleation assay, first Aβ1-40 peptide is dissolved in HFIP (1,1,1,3,3,3-Hexafluoro-2-propanol; Aldrich 10,522-8) at a concentration of 2 mg peptide/ml and incubated at room temperature for 30 min. HFIP-solubilized peptide is sonicated in a waterbath sonicator for 5 min at highest setting, then evaporated to dryness under a stream of argon. The peptide film is resuspended in anhydrous dimethylsulfoxide (DMSO) at a concentration of 6.9 mg/ml (25× concentration), sonicated for 5 min as before, then filtered through a 0.2 micron nylon syringe filter (VWR cat. No. 28196-050). Test compounds are dissolved in DMSO at a 100× concentration. Four volumes of 25×Aβ1-40 peptide in DMSO are combined with one volume of test compound in DMSO in a glass vial, and mixed to produce a 1:1 molar ratio of AP peptide to test compound. For different molar ratios, test compounds are diluted with DMSO prior to addition to Aβ1-40, in order to keep the final DMSO and Aβ1-40 concentrations constant. […] Ten microliters of the mixture is then added to the bottom of a well of a Corning Costar ultra low binding 96-well plate (Coming Costar, Cambridge Mass.; cat. No. 2500). Ninety microliters of water is added to the well, the plate is shaken on a rotary shaken at a constant speed at room temperature for 30 seconds, an additional 100 μl of 2×PTL buffer (20 mM NaH2PO4, 300 mM NaCl, pH 7.4) is added to the well, the plate is reshaken for 30 seconds and a baseline (t=0) turbidity reading is taken by measuring the apparent absorbance at 405 nm using a Bio-Rad Model 450 Microplate Reader. The plate is then returned to the shaker and shaken continuously for 5 hours. Turbidity readings are taken at 15 minute intervals.
β-amyloid aggregation in the absence of any modulators results in enhanced turbidity of the natural β-AP solution (i.e., an increase in the apparent absorbance at 405 nm over time).
The modulator compounds were evaluated in nucleation assays utilizing 5 μM Aβ1-40 and either 5 μM, 2.5 μM, 1.25 μM, 3 μM, 1 μM, or 0.3 μM test compound. The change in lag time (ΔLag) is presented as the ratio of the lag time observed in the of the test compound (at either 5 μM, 2.5 μM, 1.25 μM, 3 μM, 1 μM, or 0.3 μM) to the lag time of the control.

[2] = target: T1, Aβ1-40; assay: as above; format: biochemical; details: for Nucleation assay data: footnote *: measured at 0.6 μM of compound, Table II
[3] = BUI#77: IN VIVO: IV BRAIN LEVELS @ 1 HOUR post 1 mL x 1 min IV
Procedure: Table printed on a drawing sheet, Fig. 1
Title: BUI#77: IN VIVO: IV BRAIN LEVELS @ 1 HOUR post 1 mL x 1 min IV
The patent's description of the figure: FIG. 1 is a table depicting the results from a brain uptake assay.
First reader's note: Rows with only a Structure cell (l-v-f-f-a, TFA. l-v-f-f-l, TFA. l-f-f-v-l) are bold group headings for the rows below them; the asterisk printed in the gap before the UNIT DOSE block is kept in its own unheaded column.

2TFA.H-(lfkvl)-NH2 [PPI-1321]
Nucleation assay data 0.3 μM [1]: <1
Nucleation assay data 1 μM [1]: <1
Nucleation assay data 3 μM [1]: <1

2TFA.H-lvf-NH-NH-fvl-H [PPI-1125]
Nucleation assay data [1]: >2.5
Nucleation assay data [2]: 2.0

CC(C)C[C@@H](N)C(=O)N[C@H](Cc1ccccc1)C(=O)N[C@H](Cc1ccccc1)C(=O)N[C@@H](C(=O)N[C@H](CC(C)C)C(N)=O)C(C)C [578 | 578, TFA. H-(lffvl)-NH2]
MAX SOLUBILITY | Brain Levels (nM) + CsA | mean [3]: 57 nM
MAX SOLUBILITY | Brain Levels (nM) | mean [3]: 7.6 nM
UNIT DOSE (2mg/kg IV) | (+)CsA [3]: 16 nM
UNIT DOSE (2mg/kg IV) | ALONE [3]: 2 nM

CC(C)C[C@@H](N)C(=O)N[C@@H](C(=O)N[C@H](Cc1ccccc1)C(=O)N[C@H](Cc1ccccc1)C(=O)N[C@H](C)C(N)=O)C(C)C [655 | 655, TFA. H-(lvffa)-NH2]
MAX SOLUBILITY | Brain Levels (nM) + CsA | mean [3]: 50 nM
MAX SOLUBILITY | Brain Levels (nM) | mean [3]: 7.9 nM
UNIT DOSE (2mg/kg IV) | (+)CsA [3]: 22 nM
UNIT DOSE (2mg/kg IV) | ALONE [3]: 3 nM

CN[C@H](CC(C)C)C(=O)N[C@@H](C(=O)N[C@H](Cc1ccccc1)C(=O)N[C@H](Cc1ccccc1)C(=O)N[C@H](C)C(N)=O)C(C)C [1019 | 1019, TFA. N-methyl-(lvffa)-NH2]
MAX SOLUBILITY | Brain Levels (nM) + CsA | mean [3]: 29 nM
MAX SOLUBILITY | Brain Levels (nM) | mean [3]: 7.2 nM
UNIT DOSE (2mg/kg IV) | (+)CsA [3]: 17 nM
UNIT DOSE (2mg/kg IV) | ALONE [3]: 4 nM

CC(C)C[C@@H](N)C(=O)N[C@H](Cc1c(F)c(F)c(F)c(F)c1F)C(=O)N[C@H](Cc1ccccc1)C(=O)N[C@@H](C(=O)N[C@H](CC(C)C)C(N)=O)C(C)C [PPI-1324, TFA.H-(l-[F5]f-fvl)-NH2]
MAX SOLUBILITY | Brain Levels (nM) + CsA | mean [3]: 23 nM
MAX SOLUBILITY | Brain Levels (nM) | mean [3]: 4.1 nM
UNIT DOSE (2mg/kg IV) | (+)CsA [3]: 9 nM
UNIT DOSE (2mg/kg IV) | ALONE [3]: 2 nM

TFA.H-(Glvffl)-NH2 [PPI-1013]
Nucleation assay Δ lag ([1]; footnote #: measured at 1.25 μM of compound, Table I): >3
Nucleation assay Δ lag ([2]; footnote #: measured at 0.6 μM of compound, Table I): 2

TFA.H-(lf-D-Cha-vl)-NH2 [PPI-1318]
Nucleation assay data 0.3 μM [1]: 1
Nucleation assay data 1 μM [1]: 2
Nucleation assay data 3 μM [1]: >5

TFA.H-(lf-[F5]f-vl)-NH2 [PPI-1320]
Nucleation assay data 0.3 μM [1]: 1
Nucleation assay data 1 μM [1]: 3
Nucleation assay data 3 μM [1]: >5

TFA.H-(lvffa)-dimethylamide [PPI-993]
Nucleation assay Δ lag 1.25 μM [1]: 1
Nucleation assay Δ lag 5 μM [1]: 1
Nucleation assay Δ lag […] [1]: 1

TFA.H-(lvffa)-isopropylamide [PPI-992]
Nucleation assay Δ lag 1.25 μM [1]: 1
Nucleation assay Δ lag 5 μM [1]: 3
Nucleation assay Δ lag […] [1]: 1

TFA.N,N-diethyl-(Gaffvl)-NH2 [PPI-1005]
Nucleation assay Δ lag 1.25 μM [1]: 1
Nucleation assay Δ lag 5 μM [1]: 3
Nucleation assay Δ lag […] [1]: 3

TFA.N,N-diethyl-(affvl)-NH2 [PPI-1006]
Nucleation assay Δ lag 1.25 μM [1]: 1
Nucleation assay Δ lag 5 μM [1]: 1
Nucleation assay Δ lag […] [1]: 1

TFA.N,N-dimethyl-(Gaffv1)-NH2 [PPI-803]
Nucleation assay Δ lag 1.25 μM [1]: <1
Nucleation assay Δ lag 5 μM [1]: <1
Nucleation assay Δ lag […] [1]: <1

TFA.N,N-dimethyl-(affvl)-NH2 [PPI-913]
Nucleation assay Δ lag 1.25 μM [1]: 1
Nucleation assay Δ lag 5 μM [1]: 1
Nucleation assay Δ lag […] [1]: 1

TFA.N-ethyl-(Gaffvl)-NH2 [PPI-969]
Nucleation assay Δ lag 1.25 μM [1]: 3
Nucleation assay Δ lag 5 μM [1]: >5
Nucleation assay Δ lag […] [1]: >5

TFA.N-isopropyl-(Gaffvl)-NH2 [PPI-970]
Nucleation assay Δ lag 1.25 μM [1]: 1
Nucleation assay Δ lag 5 μM [1]: >5
Nucleation assay Δ lag […] [1]: >5

TFA.N-methyl-(Gaffvl)-NH2 [PPI-968]
Nucleation assay Δ lag 1.25 μM [1]: 2
Nucleation assay Δ lag 5 μM [1]: >5
Nucleation assay Δ lag […] [1]: >5

TFA.N-methyl-(lvffl)-NH2 [PPI-1019]
Nucleation assay data [1]: >2.5
Nucleation assay data [2]: 2.0
